{"source": "patent US9987299B2", "about": "“Methods of improving RNAi in well-differentiated airway epithelia” (University of Iowa Research Foundation, priority 2014, dated 2018)", "test_system": "HAE", "experiment": "DIG-labeled DsiRNA entry and uptake into HAE (confocal imaging)", "format": "cell-based, human", "conditions": "PAF-treated HAE, 1 hour after transduction with Transductin, compared with control HAE", "procedure": "FIG. 2. PAF treatment enhances DsiRNA entry and uptake into cells. […] Blue, nuclei; green, DIG-labeled oligo. The images on the right and the left are from different fields.\nThe primary human airway epithelia grown at the air-liquid interface were transfected with the DIG-labeled DsiRNA at a concentration of 250 nM after complexing with Transductin. The transfection mixture was left on the apical surface for 1 h. At the end of this period, the cells were fixed in 2% formaldehyde, permeabilized in 0.2% Triton-x-100 and blocked in 1% BSA for 1 h. The cells were then stained with mouse antibody to DIG (Roche Biochemicals, Indianapolis, Ind.) for 1 h, followed by Alexa 488 labeled goat anti-mouse secondary antibody for 1 h, and then Alexa 488 labeled rabbit anti-mouse tertiary antibody (Life Technologies, Carlsbad, Calif.). In some cases an Alexa 564 goat anti-mouse secondary antibody was used. The cells were finally stained with nuclear stain, ToPro 3 for 10 minutes. The filter, containing the cells, was removed from the culture insert by cutting the edges with razor blade, and mounted on a slide with Vectashield (Vector Laboratories Inc, Burlingame, Calif.). The cells were visualized by confocal microscopy (Bio-Rad Radience 2100MP Multiphoton/Confocal Microscope, Bio-Rad, Hercules, Calif.).", "data": [{"substance": "platelet activating factor [PAF]", "values": [{"measurement": "amount of internalized DIG-labeled DsiRNA", "value": "substantial increase in the amount of internalized label"}]}]}
